From patent US11040951B2, “Methods and compositions relating to genotoxin colibactin” (PRESIDENT AND FELLOWS OF HARVARD COLLEGE, priority 2018, dated 2021)
“Also recorded” adds a separate entry of the source. Where two headings read alike, the source gives them in different places. Non-standard residues stand in square brackets, D forms with d. Residues, ends and D or L forms follow the SMILES beside them. *: point of attachment. Myristoyl = CCCCCCCCCCCCCC(=O)*

What was measured:
[1] = system: ClbPFL (full-length ClbP); assay: In vitro cleavage of synthetic substrates by ClbPFL, LC-MS detection; assay type: biochemical, E. coli; conditions: for cleavage by ClbPFL in vitro: LC-MS detection of cleavage product
Procedure: (§1) The top graph of FIG. 2A depicts LC-MS detection of the prodrug scaffold ([M+H]^+: 343.2597 m/z) released by the hydrolysis of (1) by ClbP in vitro. Reactions were carried out in 50 mM Tris pH 8.0, 200 mM NaCl, 0.1 μM enzyme. 0.02% w/v DDM was added for all reactions involving full-length ClbP (Error bars are SD, n=3). The bottom graph of FIG. 2B depicts kinetic analysis of ClbP acting on synthetic precolibactin-mimic substrate (1). Note that this substrate is insoluble above 200 μM under assay conditions. Rates were calculated by quenching reactions in 1-minute intervals in methanol and quantifying the amount of substrate cleaved by derivatization of the L-alanine product with o-phthaldialdehye (OPA) and fluorescence detection (see Examples) (Error bars are SD, n=3). Substrate is insoluble above 200 μM under assay conditions. All kinetics experiments are averages of 3 independent replicates, reactions were carried out in 50 mM Sodium Phosphate pH 8.0, 200 mM NaCl, 0.02% w/v DDM, 0.1 μM enzyme. The bottom graph of FIG. 2B depicts the approach and substrates sampled in this SAR study. All kinetics experiments are averages of 3 independent replicates, reactions were carried out in 50 mM Sodium Phosphate pH 8.0, 200 mM NaCl, 0.02% w/v DDM, 0.1 μM ClbP-FL (full length) (also referred to herein as ClbPFL). All errors are ±SD.
Optical densities of E. coli cultures were determined with a DU 730 Life Sciences UV/Vis spectrophotometer (Beckman Coulter, Indianapolis, Ind.) by measuring absorbance at 600 nm. Ultracentrifugation was performed on a Beckman-Coulter Optima XE-90 Ultracentrifuge fitted with a type 45 Ti rotor in 70 mL polycarbonate tubes. Solvents and formic acid used for LC-MS were B & J Brand High Purity Solvents (Honeywell Research Chemicals). High-resolution LC-MS analyses of enzyme assays and synthetic compounds were performed on an Agilent 6530 Q-TOF Mass Spectrometer fitted with a dual-spray electrospray ionization (ESI) source. The capillary voltage was set to 3.5 kV, the fragmentor voltage to 175 V, the skimmer voltage to 65 V, and the Oct 1 RF to 750 V. The drying gas temperature was maintained at 275° C. with a flow rate of 8 L/min and a nebulizer pressure of 35 psi. A standard calibrant mix was introduced continuously during all experiments via the dual-spray ESI source. For analytical liquid chromatography, unless otherwise noted, experiments were performed using an Agilent Technologies 1200 series LC on a Hypersil GOLDaq™ C18 reverse phase column (50×3 mm, Thermo Scientific) with the following elution conditions: a gradient from 35% solvent A:65% solvent B to 100% solvent A over 5 minutes, holding at 100% A for 2 minutes, followed by a gradient back to 35% solvent A over 1 minute and holding at 35% solvent A for 3.5 minutes (solvent A: acetonitrile+0.1% formic acid; solvent B: water+0.1% formic acid; flow rate=0.4 mL/minute; injection volume=10 μL). All experiments were performed in positive ion mode, and the masses detected corresponded to [M+H]+ ions unless otherwise noted. Masses were found within 5 ppm of the expected [M+H]+ masses.
For all in vitro assays involving ClbPFL and ClbFL-S95A “Tris assay buffer” refers to a buffer composed of 50 mM Tris, 200 mM NaCl, 0.02% w/v DDM, pH 8.0. Likewise, “phosphate assay buffer” refers to 50 mM sodium phosphate, 200 mM NaCl, 0.02% w/v DDM, pH 8.0.

ClbPFL-S95A = assay: In vitro cleavage of synthetic substrates by inactive mutant, LC-MS detection; assay type: biochemical, E. coli
Procedure: as §1
(§2) Optical densities of E. coli cultures were determined with a DU 730 Life Sciences UV/Vis spectrophotometer (Beckman Coulter, Indianapolis, Ind.) by measuring absorbance at 600 nm. Ultracentrifugation was performed on a Beckman-Coulter Optima XE-90 Ultracentrifuge fitted with a type 45 Ti rotor in 70 mL polycarbonate tubes. Solvents and formic acid used for LC-MS were B & J Brand High Purity Solvents (Honeywell Research Chemicals). High-resolution LC-MS analyses of enzyme assays and synthetic compounds were performed on an Agilent 6530 Q-TOF Mass Spectrometer fitted with a dual-spray electrospray ionization (ESI) source. […] All experiments were performed in positive ion mode, and the masses detected corresponded to [M+H]+ ions unless otherwise noted. […]

ClbPpep = assay: In vitro cleavage of synthetic substrates by isolated peptidase domain, LC-MS detection; assay type: biochemical, E. coli
Procedure: as §1, §2

ClbPFL = assay: In vitro kinetics assay with ClbPFL (o-phthaldialdehyde derivatization); assay type: biochemical, E. coli
Procedure: In vitro kinetics assays with ClbPFL (comparison of substrates 2, 3, and 4 using o-phthaldialdehyde derivatization): Assays were run in triplicate in 1.5 mL deep-well plates. ClbPFL-CHis10 was defrosted from −80° C. stocks on ice, then buffer exchanged into phosphate assay buffer using Zeba Spin 40K MWCO desalting columns (ThermoFisher Scientific). The enzyme was then diluted to 0.6 μM in phosphate assay buffer and 50 μL of this stock was deposited in the appropriate wells. The substrate of interest was prepared in a 2-fold dilution series in phosphate assay buffer. Reactions were initiated by the addition of 250 μL of substrate stock to each assay well to a final concentration of 0.1 μM ClbP, 12.5-200 μM substrate, 3% DMSO and incubated at 25° C. Reaction mixtures were pipetted briefly to mix. […] 50 μL of each supernatant from the quenched reactions and standard curves were then transferred to the appropriate wells, pipetted once to mix, and then fluorescence was immediately measured on a plate reader (Bio-Tek Synergy HTX multimode plate reader, measurement settings −360/40 nm excitation filter, 440/20 nm emission filter, detector gain: 35). Fluorescence was measured every 30 seconds for 10 minutes and the maximum value achieved for each well was used for calculations. […]

[2] = system: CCCC(=O)N[C@H](CC(N)=O)C(=O)N[C@@H](C)C(=O)OC; assay: In vitro kinetics of ClbPFL-mediated cleavage of substrates, o-phthaldialdehyde (OPA) derivatization of L-alanine product with fluorescence detection (FIGS. 2B, 10, 11); assay type: biochemical, E. coli; conditions: pH 8.0
Procedure: as §1
(§3) FIGS. 10A-10C depict the kinetics of ClbPFL-mediated cleavage of substrates (FIG. 10A) 2, (FIG. 10B) 3, and (FIG. 10C) 4. Each data point is an average of 3 biological replicates with error bars representing 1 SD. Solid lines are non-linear regression fits of data points to the Michaelis-Menten model.
(§4) FIG. 11 depicts the kinetic parameters for substrates 2, 3, and 4. […]
(§5) To determine the key features for substrate recognition by full-length ClbP, we undertook a structure-activity-relationship (SAR) focusing on three key regions of the substrate. […] Using a higher-throughput fluorescence derivatization assay, we determined kinetic parameters for several of these substrates (FIG. 2B). […]

[3] = system: CCCCCCCCCCCCCC(=O)N[C@H](CC(N)=O)C(=O)N[C@@H](C)C(=O)OC; assay: as above; assay type: biochemical, E. coli; conditions: pH 8.0
Procedure: as §1, §3, §4, §5

[4] = system: COC(=O)[C@H](C)NC(=O)[C@@H](CC(N)=O)NC(=O)CCCc1ccccc1; assay: as above; assay type: biochemical, E. coli; conditions: pH 8.0
Procedure: as §1, §3, §4, §5

[5] = system: CCCCCCCCCCCCCC(=O)N[C@H](CC(N)=O)C(=O)N[C@@H](C)C(=O)OC; assay: Kinetics of ClbPFL-mediated cleavage of substrates 1 and 2 (FIG. 8); assay type: biochemical, E. coli; conditions: pH 8.0
Description: (§6) FIG. 8 depicts the kinetics of ClbPFL-mediated cleavage of substrates 1 and 2. Each data point is an average of 3 biological replicates with error bars representing 1 SD. Solid lines are non-linear regression fits of data points to the Michaelis-Menten equation.
(§7) As used herein “ClbP” or “colibactin P” refers to a membrane bound periplasmic peptidase that cleaves an N-acyl-D-asparagine motif (the ‘prodrug scaffold’) from the N-terminus of precolibactin to liberate the active colibactin (FIG. 1). The sequences of ClbP are known in the art, e.g., the polypeptide sequence is available in the Uniprot database as accession number Q0P7K6 (SEQ ID NO: 1).
(§8) We obtained purified enzyme by separating the cell components using ultracentrifugation, solubilizing the membranes in an n-dodecyl-β-D-maltoside (DDM)-containing buffer, and per¬forming immobilized metal affinity chromatography. Because the structure of precolibactin has not yet been fully elucidated, we tested purified ClbPFL against a variety of synthetic precolibactin analogues. […] We chose substrate 2 for a more detailed structure—activity relationship (SAR) study. […]

[6] = system: CCCCCCCCCCCCCC(=O)N[C@H](CC(N)=O)C(=O)N[C@@H](C)CCC(=O)CC(=O)NC1(C(=O)O)CC1; assay: as above; assay type: biochemical, E. coli; conditions: pH 8.0
Description: as §6, §7, §8

[7] = Solubility and membrane permeability as observed in the assays; assay type: physicochemical; conditions: under assay conditions

Row | Molecule | cleavage by ClbPFL in vitro [1] | cleavage by ClbPFL-S95A in vitro (ClbPFL-S95A) | cleavage by ClbPpep in vitro (ClbPpep) | kinetic parameters / hydrolysis efficiency compared with the reference substrate (ClbPFL) | also measured
1 | CCCCCCCCCCCCCC(=O)N[C@H](CC(N)=O)C(=O)N[C@@H](C)CCC(=O)CC(=O)NC1(C(=O)O)CC1 [Compound 1] | rapidly in vitro | no activity | no activity | comparable | –
2 | CCCCCCCCCCCCCC(=O)N[C@H](CCC(N)=O)C(=O)N[C@@H](C)C(=O)OC [(8)] (Myristoyl-[dQ]-Ala-OMe) | no cleavage products were detected | – | – | – | –
3 | ClbPFL (full-length ClbP, ClbPFL-CHis10) (Escherichia coli) | – | – | – | – | Km [2]: 680 ± 470 µM; Km [3]: 130 ± 26 µM; Km [4]: 246 ± 70 µM; Km [5]: 75 ± 23 µM; Km [6]: 16 ± 2 µM
4 | CCCCCCCCCCCCCC(=O)N[C@@H](CC(N)=O)C(=O)N[C@@H](C)C(=O)OC [(7)] (Myristoyl-Asn-Ala-OMe) | no cleavage products were detected | – | – | – | –
5 | CCCCCCCCCCCCCC(=O)N[C@H](CC(=O)O)C(=O)N[C@@H](C)C(=O)OC [(6)] (Myristoyl-[dD]-Ala-OMe) | cleaved in low amounts | – | – | – | amount cleaved by ClbPFL, fold less than (1) ([1]; LC-MS, relative to (1)): ~100 fold
6 | CCCCCCCCCCCCCC(=O)N[C@H](CC(N)=O)C(=O)N[C@@H](C)CCC(=O)CC(=O)NC1(C(=O)O)CC1 [(1)] | rapidly in vitro | no cleavage activity | no cleavage activity | comparable | cleavage by ClbPFL-S95A in vitro (ClbPFL-S95A; listed as 2): no activity; cleavage by ClbPpep in vitro (ClbPpep; listed as 2): no activity; also recorded: cannot process; solubility limit [7]: ≤ 200 µM
